The record followed here is patent US20190388490A1, “PLANT EXTRACTIONS, COMPOSITIONS CONTAINING SAME, AND USES THEREOF” (priority 2010, published 2019).

This experiment is described as follows: Free radical scavenging by ESR with DPPH. To be noted: 100 μg mixed with alcohol solution of DPPH for 2 minutes. The method, then: The free radical scavenging capacity of the Bacopa monniera extract product was evaluated using spectrophotometric and electron spin resonance (ESR) techniques. ESR is considered to be the least ambiguous method for the detection of free radicals. 2,2-Diphenyl -1-picrylhydrazyl (DPPH) was used as a stable free radical. An alcohol solution of DPPH was mixed with 100 μg of a Bacopa monniera extract product for 2 minutes and then ESR measurements were conducted. Quercetine was used as a positive control for scavenging the free radicals.

Regarding `O=c1c(O)c(-c2ccc(O)c(O)c2)oc2cc(O)cc(O)c12` [quercetine, Quercetine], the “effect on DPPH free radical ESR peak” value is given as “slight change in peak height”.
